# Data: patent US20050095196A1, “Method for using potassium channel agonists for delivering a medicant to an abnormal brain region and/or a malignant tumor” (priority 2003, published 2005)
# Entries after “also recorded” stand apart in the source; their conditions may differ. Where a name gives a salt, the structure may show the parent alone.
# Key:
# brain tumor capillaries = conditions: intracarotid infusion, cited from earlier work
# [1] = test system: blood-tumor barrier of RG2 glioma tissue; experiment: Unidirectional transfer constant Ki for [14C]AIB across the blood-tumor barrier, quantitative autoradiography after intracarotid infusion; type: in vivo, Wistar rats; conditions: for unidirectional transport constant Ki for [14C]α-aminoisobutyric acid (AIB) across the blood-tumor barrier: RG2 glioma-bearing Wistar rats, intracarotid 7.5 μg kg^−1 min^−1 for 15 minutes
# Excerpt: Malignant Cell Line and Tumor Implantation. A rat glioma cell line, RG2, was used for implantation of experimental brain tumors in Wistar rats. The techniques for RG2 cell propagation and maintenance in tissue culture have been described (Sugita, M. and Black, K. L., Cyclic GMP-specific phosphodiesterase inhibition and intracarotid bradykinin infusion enhances permeability into brain tumors, Cancer Res. 58(5):914-20 [1998]; Inamura et al. [1994]; Nakano, S. et al., Increased brain tumor microvessel permeability after intracarotid bradykinin infusion is mediated by nitric oxide, Cancer Res. 56(17):4027-31 [1996]). Briefly, RG2 cells derived from a rat glioma are kept frozen until use, then are thawed and maintained in a monolayer culture in F12 medium with 10% calf serum.
# The Wistar rats (approximately 140-160 g body weight) were anesthetized with intra-peritoneal ketarnine (50 mg/kg), and glial cells (1×10^5) were implanted into the right hemisphere, but not the contralateral hemisphere, by intracerebral injection suspended in 5 μL F12 medium,(1-2% methylcellulose) by.a Hamilton syringe. The implantation coordinates were 3-mm lateral to the bregrna and 4.5 mm deep to the dural surface.
# Intracarotid Infusion of Potassium Channel Activators. Seven days after implantation of RG2 cells, the rats were anesthetized as described above and prepared for permeability studies. Animals were infused with either NS-1619 (a selective large conductance Ca^2+- activated K^+ channel activator; […]; 5% (v/v) ethanol. Ethanol (25% [v/v]) was used to dissolve. the potassium channel agonists before.dilution in PBS. For blood volume studies, 5 and 14 minutes after the start of the intracarotid infusion of potassium channel agonist compounds, [^14C] Dextran (100 μCi/kg; Dupont-New England Nuclear Co., Boston, Mass.) was injected as an intravenous bolus and maintained for 1 minute and 10 minutes to obtain two different time points. For regional permeability studies, 5 minutes after the start of the intracarotid infusion of vasoactive compounds, 100 μCi/kg of [^14C]α-aminoisobutyric acid (Dupont-New England Nuclear Colo., Boston, Mass.) was injected as an intravenous bolus. A peristaltic withdrawal pump was used to withdraw femoral arterial blood at a constant rate of 0.083 mL/min immediately after the injection of the tracer to determine serum radioactivity. Fifteen minutes after the intracarotid infusion, rat decapitated and the brain rapidly removed and frozen for quantitative autoradiography.
# Unidirectional Transport Constant (Ki). The unidirectional transfer constant Ki for [^14C]α-aminoisobutyric acid was measured in normal tissue and tumor tissue as an indicator of permeability across the blood-tumor and blood-brain barriers. Quantitative autbradiography was. used to obtain Ki values (μL g^−1min^−1). The initial rate for blood-to-brain transfer was calculated using a previously described equation. (Ohno, K, et al., Lower limits of cerebrovascular permeability to nonelectrolytes in the conscious rat, Am. J. Physiol. 235(3):H299-307, [1978]; Inamura, T., et al., Bradykinin selectively opens blood-tumor barrier in experimental brain rumors, J. Cereb. Flow Metab. 14(5):862-70 [1994]). Quantitative data were analyzed using, two group t-test and two-group Fisher's-exact test of equal proportions or equal means (equal numbers) at 90% power requires a minimum of 6 animals in each group to achieve statistical significance. Multiple treatment groups were compared with control group by ANOVA and P values determined by post-hoc Bonferroni test.
# Dose-dependence studies. NS-1619 was dissolved in 25% ethanol and diluted with PBS to obtain various concentrations for infusion. […]
# [2] = cited from earlier work
# [3] = Arterial blood pressure monitored during intracarotid infusion; type: in vivo; conditions: rats; higher doses (100 and 110 μg/kg/min)
# Experimental: Dose-dependence studies. NS-1619 was dissolved in 25% ethanol and diluted with PBS to obtain various concentrations for infusion. NS-1619 was administered by intracarotid infusion (dose rates: 0, 13, 26.5, 53, 80, 100 and 110 μg kg^−1 min^−1; all at 53.3. μL/min) to RG2 glioma-bearing rats to determine a dose that produces increased permeability (Ki) of (^14C]-AIB, which was administered intravenously. Ki determined as described above. Physiological parameters were monitored during the experiments.
compound,measurement,setting,value
"CCCCC/C=C\C\C=C/C=C/C=C/[C@@H](SC[C@H](NC(=O)CC[C@H](N)C(=O)O)C(=O)NCC(=O)O)[C@@H](O)CCCC(=O)O [LTC4, leukotriene C4]",permeability in normal brain capillaries,brain tumor capillaries,without affecting the permeability
same,permeability in brain tumor capillaries,brain tumor capillaries; effect limited to small molecules,selectively increases the permeability
Nc1cc(N2CCCCC2)nc(N)[n+]1OS(=O)(=O)[O-] [minoxidil sulfate],unidirectional transport constant Ki for [14C]α-aminoisobutyric acid (AIB) across the blood-tumor barrier,[1],significantly increased
same,solubility in water,[2],not easily dissolved in water
"IBTX: specific KCa channel inhibitor, iberiotoxin (QFTDVDCSVSKECWSVCKDLFGVDRGKCMGKKCRCYQ; Iberiotoxin; UniProt P24663 1-37, looked up)","brain-tumor barrier permeability of abnormal capillaries, IBTX alone","[1]; IBTX 2.3 μg kg^−1 min^−1, 15 minutes, n=3",did not affect
same,effect of IBTX co-infusion on NS-1619-induced increase of permeability (Ki),"[1]; IBTX 2.3 μg kg^−1 min^−1 with NS-1619 26.5 μg kg^−1 min^−1, n=3, P<0.001 vs NS-1619-treated group",decreased NS-1619-induced increase of permeability
"CC(N/C(=N\C#N)Nc1ccncc1)C(C)(C)C (racemic) [pinacidil, (±)-N-cyano-N′-4-pyridinyl-N″-(1,2,2-trimethylpropyl)-guanidine]",solubility in ethanol,[2]; ethanol,14 mg/mL
same,solubility in water,[2],insoluble in water; also recorded: not easily dissolved in water
CC1=NS(=O)(=O)c2cc(Cl)ccc2N1 [diazoxide],solubility in water,[2],not easily dissolved in water
"O=c1[nH]c2cc(C(F)(F)F)ccc2n1-c1cc(C(F)(F)F)ccc1O [NS-1619, 1,3-dihydro-1-[2-hydroxy-5-(trifluoromethyl)phenyl]-5-(trifluoromethyl)-2H-benzimidazol-2-one]","Ki for [14C]AIB in RG2 tumor, NS-1619 26.5 μg kg^−1 min^−1 vs PBS with or without 5% ethanol","[1]; 15 minutes, n=8, P<0.001",Increase of Ki
same,unidirectional transport constant Ki for [14C]α-aminoisobutyric acid (AIB) across the blood-tumor barrier,[1],significantly increased
same,dose-response of Ki for [14C]AIB in RG2 glioma capillaries,"[1]; intracarotid dose rates 0, 13, 26.5, 53, 80, 100 and 110 μg kg^−1 min^−1",increasing the dose of NS-1619 results in an increase
same,arterial blood pressure,[3],a significant drop in the arterial blood pressure
same,solubility in water,[2],not easily dissolved in water
